Data from publication PMC7377239, “Cardiovascular Effects of Polychlorinated Biphenyls and Their Major Metabolites” (Environmental Health Perspectives, 2020).
Where two headings read alike, the source gives them in different places.

What was measured:
HUVECs = assay: High-content imaging cytotoxicity in HUVECs, 24 h; assay type: cell-based, human; settings: Homo sapiens, HUVEC, 24 h, HUVECs; for viability at 0.01 µM / activity at 0.01 µM / viability at 0.1 µM / activity at 0.1 µM / viability at 1 µM / activity at 1 µM / viability at 10 µM / activity at 10 µM / viability at 100 µM / activity at 100 µM: 0.00 µM = 100.00; for viability at 0.1 µM / activity at 0.1 µM: 0.10 µM; for minimal effective concentration: top concentration 100.00 µM
Procedure, shortened: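 Read-out: multiwavelength high-content imaging of Hoechst 33342, MitoTracker Orange and calcein AM after 24 h compound exposure of confluent HUVEC monolayers. POD values were set using a one-SD cutoff from vehicle (0.5% DMSO) means; with no concentration–response, 100μM was assigned as no observable adverse effect level.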

[1] = test system: iCell cardiomyocytes (human iPSC-derived cardiomyocytes); assay: High-content imaging of cytotoxicity and mitochondrial integrity in iPSC-CMs; assay type: cell-based; settings: Homo sapiens; for viability at 0.01 µM / activity at 0.01 µM / viability at 0.1 µM / activity at 0.1 µM / viability at 1 µM / activity at 1 µM / viability at 10 µM / activity at 10 µM / viability at 100 µM / activity at 100 µM: Cardiomyocyte, 0.00 µM = 100.00; for viability at 0.1 µM / activity at 0.1 µM: 0.10 µM; for minimal effective concentration: iPSC-CM
Procedure, shortened: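 This assay measured cytotoxicity and mitochondrial integrity in iPSC cardiomyocytes held in 40μL maintenance medium. After compound exposure, a 2× staining solution with Hoechst 33342 (4μg/mL) and MitoTracker™ Orange (0.4μM) was applied for 15 min at 37°C. Cells were washed, fixed with 3.7% formaldehyde, imaged on DAPI and Cy3 channels, and scored in MetaXpress®.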

[2] = 24 hr, read-out: huvec.cyto.24hr
[3] = 24 hr, read-out: huvec.mito.24hr
[4] = 24 hr, read-out: huvec.mitoint.24hr
[5] = 24 hr, read-out: huvec.nma.24hr
[6] = 24 hrs, read-out: huvec.tc.24hrs

Oc1cc(Cl)cc(-c2cccc(Cl)c2)c1 [5-OH PCB 11]
viability at 0.01 µM (HUVECs; [2]): 94.6% | activity at 0.01 µM (HUVECs; [3]): 93.1% | activity at 0.01 µM (HUVECs; [4]): 89.8% | activity at 0.01 µM (HUVECs; [5]): 98.5% | viability at 0.1 µM (HUVECs; [2]): 87.5% | activity at 0.1 µM (HUVECs; [3]): 86.8% | activity at 0.1 µM (HUVECs; [4]): 107% | activity at 0.1 µM (HUVECs; [5]): 111% | viability at 1 µM (HUVECs; [2]): 93.9% | activity at 1 µM (HUVECs; [3]): 93.3% | activity at 1 µM (HUVECs; [4]): 101% | activity at 1 µM (HUVECs; [5]): 99.7% | viability at 10 µM (HUVECs; [2]): 35.9% | activity at 10 µM (HUVECs; [3]): 29.1% | activity at 10 µM (HUVECs; [4]): 17.5% | activity at 10 µM (HUVECs; [5]): 69.5% | viability at 100 µM (HUVECs; [2]): 24.1% | activity at 100 µM (HUVECs; [3]): 13.2% | activity at 100 µM (HUVECs; [4]): 12% | activity at 100 µM (HUVECs; [5]): 77.5% | minimal effective concentration (HUVECs; 24 hr, read-out: huvec.cyto.24hr POD): 0.95 µM | minimal effective concentration (HUVECs; 24 hr, read-out: huvec.mito.24hr POD): 0.84 µM | minimal effective concentration (HUVECs; 24 hr, read-out: huvec.mitoint.24hr POD): 3.3 µM | minimal effective concentration (HUVECs; 24 hr, read-out: huvec.nma.24hr POD): 1.22 µM | viability at 0.01 µM (HUVECs; [6]): 94.6% | viability at 0.1 µM (HUVECs; [6]): 87.5% | viability at 1 µM (HUVECs; [6]): 93.9% | viability at 10 µM (HUVECs; [6]): 36% | viability at 100 µM (HUVECs; [6]): 26.8% | minimal effective concentration (HUVECs; 24 hrs, read-out: huvec.tc.24hrs POD): 0.95 µM | viability at 0.01 µM ([1]; 1.5 h, read-out: cm.cam.90min): 91% | activity at 0.01 µM ([1]; 1.5 h, read-out: cm.mii.90min): 117% | activity at 0.01 µM ([1]; 1.5 h, read-out: cm.mito.90min): 90.7% | viability at 0.01 µM ([1]; 1.5 h, read-out: cm.tc.90min): 91.1% | viability at 0.1 µM ([1]; 1.5 h, read-out: cm.cam.90min): 96.6% | activity at 0.1 µM ([1]; 1.5 h, read-out: cm.mii.90min): 96.6% | activity at 0.1 µM ([1]; 1.5 h, read-out: cm.mito.90min): 96.4% | viability at 0.1 µM ([1]; 1.5 h, read-out: cm.tc.90min): 96.5% | viability at 1 µM ([1]; 1.5 h, read-out: cm.cam.90min): 99% | activity at 1 µM ([1]; 1.5 h, read-out: cm.mii.90min): 90.6% | activity at 1 µM ([1]; 1.5 h, read-out: cm.mito.90min): 99% | viability at 1 µM ([1]; 1.5 h, read-out: cm.tc.90min): 99% | viability at 10 µM ([1]; 1.5 h, read-out: cm.cam.90min): 98.4% | activity at 10 µM ([1]; 1.5 h, read-out: cm.mii.90min): 108% | activity at 10 µM ([1]; 1.5 h, read-out: cm.mito.90min): 98% | viability at 10 µM ([1]; 1.5 h, read-out: cm.tc.90min): 98% | viability at 100 µM ([1]; 1.5 h, read-out: cm.cam.90min): 0% | activity at 100 µM ([1]; 1.5 h, read-out: cm.mii.90min): 69.7% | activity at 100 µM ([1]; 1.5 h, read-out: cm.mito.90min): 0.0231% | viability at 100 µM ([1]; 1.5 h, read-out: cm.tc.90min): 0.0231% | viability at 0.01 µM ([1]; 24 h, read-out: cm.cam.24hrs): 99% | activity at 0.01 µM ([1]; 24 h, read-out: cm.mii.24hrs): 95.3% | activity at 0.01 µM ([1]; 24 h, read-out: cm.mito.24hrs): 97% | viability at 0.01 µM ([1]; 24 h, read-out: cm.tc.24hrs): 99.8% | viability at 0.1 µM ([1]; 24 h, read-out: cm.cam.24hrs): 101% | activity at 0.1 µM ([1]; 24 h, read-out: cm.mii.24hrs): 93.9% | activity at 0.1 µM ([1]; 24 h, read-out: cm.mito.24hrs): 100% | viability at 0.1 µM ([1]; 24 h, read-out: cm.tc.24hrs): 101% | viability at 1 µM ([1]; 24 h, read-out: cm.cam.24hrs): 99.8% | activity at 1 µM ([1]; 24 h, read-out: cm.mii.24hrs): 100% | activity at 1 µM ([1]; 24 h, read-out: cm.mito.24hrs): 97.8% | viability at 1 µM ([1]; 24 h, read-out: cm.tc.24hrs): 99.8% | viability at 10 µM ([1]; 24 h, read-out: cm.cam.24hrs): 98.2% | activity at 10 µM ([1]; 24 h, read-out: cm.mii.24hrs): 81.6% | activity at 10 µM ([1]; 24 h, read-out: cm.mito.24hrs): 98.7% | viability at 10 µM ([1]; 24 h, read-out: cm.tc.24hrs): 97.8% | viability at 100 µM ([1]; 24 h, read-out: cm.cam.24hrs): 0.0236% | activity at 100 µM ([1]; 24 h, read-out: cm.mii.24hrs): 0% | activity at 100 µM ([1]; 24 h, read-out: cm.mito.24hrs): 0% | viability at 100 µM ([1]; 24 h, read-out: cm.tc.24hrs): 0.0229% | minimal effective concentration ([1]; 1.5 h, read-out: cm.cam.90min POD): 16.2 µM | minimal effective concentration ([1]; 1.5 h, read-out: cm.mii.90min POD): 34.1 µM | minimal effective concentration ([1]; 1.5 h, read-out: cm.mito.90min POD): 13.8 µM | minimal effective concentration ([1]; 1.5 h, read-out: cm.tc.90min POD): 14 µM | minimal effective concentration ([1]; 24 h, read-out: cm.cam.24hrs POD): 13.8 µM | minimal effective concentration ([1]; 24 h, read-out: cm.mii.24hrs POD): 8.43 µM | minimal effective concentration ([1]; 24 h, read-out: cm.mito.24hrs POD): 14.6 µM | minimal effective concentration ([1]; 24 h, read-out: cm.tc.24hrs POD): 10.7 µM
